Tests used:
[1] = target: β-galactosidase (E. coli) (Escherichia coli, UniProt P00722); assay: Glycosidase specificity: β-galactosidase; type: biochemical; conditions: at 0.1 μM Montbretin A; read-out: RA (%), Residual Enzyme Activity
[2] = target: α-galactosidase (Green Coffee Beans) (Coffea arabica, UniProt Q42656); assay: Glycosidase specificity: α-galactosidase; type: biochemical; conditions: at 0.1 μM Montbretin A; read-out: RA (%), Residual Enzyme Activity
[3] = system: male Wistar rats; assay: Taste aversion study, drinking water; type: in vivo, rat; conditions: approximately 10 mg/kg/day in drinking water
Method: A study was done to determine if there is aversion by animals to the taste of montbretin A dissolved in drinking water. Six (6) male Wistar rats weighing between 500-650 g were housed 2 rats per cage. Three hundred grams (300 g) of standard rat chow (Purnia) was placed in the food hopper of each cage daily. Food consumption per cage per day was determined every 24 hours for 3 days. A fluid volume of 900 ml of drinking water was placed on each cage daily. Fluid consumption per cage per day was determined every 24 hours for 3 days. Body weights of each animal were measured every 24 hours.
Based on the preliminary drinking water values obtained, montbretin A was dissolved in the drinking water so as to deliver a dose of 10 mg/kg/day. Body weight and food consumption measurements were done as described above. A fluid volume of 250 ml of montbretin A solution at a concentration of 0.09 mg/ml was placed on each cage daily. Fluid consumption was measured every 24 hours for 3 days.
The food and fluid consumption and body weights were analyzed. The dose of montbretin A was determined based on weight and consumption values. There was no effect of montbretin A dissolved in the drinking water on body weight, fluid intake or food intake and a dose of approximately 10 mg/kg was achieved.

[4] = target: T1, human pancreatic α-amylase (HPA) (Homo sapiens, UniProt P04746); assay: Kinetic analysis of HPA inhibition; type: biochemical
T1 sequence (P04746 16-511): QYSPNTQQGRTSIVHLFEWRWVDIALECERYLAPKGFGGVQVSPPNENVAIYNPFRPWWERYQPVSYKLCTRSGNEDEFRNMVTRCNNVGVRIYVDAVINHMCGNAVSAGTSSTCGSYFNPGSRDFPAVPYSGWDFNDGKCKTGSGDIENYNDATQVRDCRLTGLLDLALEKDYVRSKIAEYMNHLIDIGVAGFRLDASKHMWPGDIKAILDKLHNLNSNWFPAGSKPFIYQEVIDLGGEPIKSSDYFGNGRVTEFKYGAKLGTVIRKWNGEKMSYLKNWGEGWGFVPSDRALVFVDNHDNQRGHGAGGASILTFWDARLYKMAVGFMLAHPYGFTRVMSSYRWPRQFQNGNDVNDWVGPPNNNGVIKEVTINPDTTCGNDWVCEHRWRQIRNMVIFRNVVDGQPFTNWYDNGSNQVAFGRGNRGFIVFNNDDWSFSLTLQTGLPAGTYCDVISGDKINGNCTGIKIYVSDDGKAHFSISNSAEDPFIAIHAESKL

[5] = system: α-glucosidase (Brewers Yeast); assay: Glycosidase specificity: α-glucosidase; type: biochemical; conditions: at 0.1 μM Montbretin A

Sequence of α-galactosidase (Green Coffee Beans) (Q42656 16-378): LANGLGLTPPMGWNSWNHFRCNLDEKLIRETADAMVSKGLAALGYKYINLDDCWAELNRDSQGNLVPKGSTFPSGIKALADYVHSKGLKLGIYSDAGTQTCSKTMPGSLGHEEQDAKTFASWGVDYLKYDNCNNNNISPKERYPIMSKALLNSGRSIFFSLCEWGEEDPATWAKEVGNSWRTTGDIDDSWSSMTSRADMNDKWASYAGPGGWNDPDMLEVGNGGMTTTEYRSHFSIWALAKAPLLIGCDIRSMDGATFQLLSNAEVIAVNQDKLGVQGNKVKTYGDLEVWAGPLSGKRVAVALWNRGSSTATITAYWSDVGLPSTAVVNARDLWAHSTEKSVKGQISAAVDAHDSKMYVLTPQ
Sequence of β-galactosidase (E. coli) (P00722 2-1024 limits assumed): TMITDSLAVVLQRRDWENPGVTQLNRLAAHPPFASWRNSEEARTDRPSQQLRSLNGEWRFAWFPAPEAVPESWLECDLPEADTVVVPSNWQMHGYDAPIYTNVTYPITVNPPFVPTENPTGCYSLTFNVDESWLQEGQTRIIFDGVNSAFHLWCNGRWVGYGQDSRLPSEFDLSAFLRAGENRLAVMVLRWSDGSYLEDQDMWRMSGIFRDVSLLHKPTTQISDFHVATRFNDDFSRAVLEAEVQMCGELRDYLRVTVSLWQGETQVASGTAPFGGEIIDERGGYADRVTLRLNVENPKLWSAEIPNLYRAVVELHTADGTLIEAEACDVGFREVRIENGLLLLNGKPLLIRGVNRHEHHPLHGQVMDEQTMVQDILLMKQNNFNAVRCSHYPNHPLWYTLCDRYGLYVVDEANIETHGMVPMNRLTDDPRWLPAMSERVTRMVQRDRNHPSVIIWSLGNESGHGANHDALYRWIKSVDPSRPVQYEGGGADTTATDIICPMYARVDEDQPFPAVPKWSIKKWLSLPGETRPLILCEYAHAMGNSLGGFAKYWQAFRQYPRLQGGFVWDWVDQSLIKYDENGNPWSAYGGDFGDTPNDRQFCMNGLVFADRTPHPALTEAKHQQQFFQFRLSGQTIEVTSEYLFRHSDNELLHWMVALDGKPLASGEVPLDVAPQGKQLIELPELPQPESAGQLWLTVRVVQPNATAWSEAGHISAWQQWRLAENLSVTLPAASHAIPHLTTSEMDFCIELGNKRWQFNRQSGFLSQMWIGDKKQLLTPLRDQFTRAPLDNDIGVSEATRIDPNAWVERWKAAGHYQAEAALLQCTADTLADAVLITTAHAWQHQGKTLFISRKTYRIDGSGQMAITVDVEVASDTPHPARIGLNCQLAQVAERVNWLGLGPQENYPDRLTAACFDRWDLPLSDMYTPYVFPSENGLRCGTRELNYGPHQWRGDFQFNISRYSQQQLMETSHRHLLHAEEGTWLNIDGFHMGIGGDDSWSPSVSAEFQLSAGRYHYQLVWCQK

Q: For CC1O[C@@H](O[C@@H]2CO[C@@H](Oc3c(O)cc(-c4oc5cc(O)cc(O)c5c(=O)c4O[C@@H]4OC(C)[C@H](O)[C@H](O)C4O[C@@H]4OC(COC(=O)/C=C/c5ccc(O)c(O)c5)[C@@H](O)[C@@H](O)C4O[C@@H]4OC(CO)[C@@H](O)[C@@H](O)C4O)cc3O)C(O)[C@@H]2O)C(O)[C@@H](O)[C@H]1O (some centres unmarked) [Montbretin A, montbretin A], which remaining activity at 0.1 µM [1] is on record?
A: 98%

Q: What about the remaining activity at 0.1 µM [2] of the same compound?
A: 100%

Q: And the “effect on body weight” value ([3]; 3 days)?
A: no effect

Q: What about the “effect on fluid intake” value ([3]; 3 days) of the same compound?
A: no effect

Q: And the “effect on food intake” value ([3]; 3 days)?
A: no effect

Q: And the side effects ([3]; duration of the trial)?
A: no overt indications of side effects

Q: What about the “mode of inhibition of HPA” value ([4]; double reciprocal plot) of the same compound?
A: competitive

Q: What about the “effect of calcium on HPA inhibition” value ([4]; presence of 1 mM calcium chloride) of the same compound?
A: no change in inhibition

Q: What about the “effect of DTT on HPA inhibition” value ([4]; presence vs absence of 5 mM dithiothreitol) of the same compound?
A: No effect

Q: What about the Ki ([4]; varied substrate and inhibitor concentrations, GraFit) of the same compound?
A: 8.1 ± 0.5 nM

Q: What about the “RA (%), Residual Enzyme Activity” value [5] of the same compound?
A: 97%

— US8431541B2, “Alpha-amylase inhibitors: the montbretins and uses thereof” (The University of British Columbia, priority 2007, dated 2013)
